≈ marks a conversion by molar mass, not a printed value.

The target in data set [1] is recombinant human Estrogen Receptor alpha ligand binding domain (ER alpha-LBD (GST)) (Homo sapiens (Human), UniProt P03372). Nature of the data set: ERα binding assay (LanthaScreen TR-FRET competition). The following applies: TR-FRET, displacement of Fluormone ES2. As for the experimental part:
The ability of compounds to bind to isolated Estrogen Receptor Alpha Ligand binding domain (ER alpha-LBD (GST)) was assessed in competition assays using a LanthaScreen™ Time-Resolved Fluorescence Resonance Energy Transfer (TR-FRET) detection end-point. […] The assay principle is that ER alpha-LBD (GST) is added to a fluorescent ligand to form a receptor/fluorophore complex. A terbium-labelled anti-GST antibody (Product code PV3551) is used to indirectly label the receptor by binding to its GST tag, and competitive binding is detected by a test compound's ability to displace the fluorescent ligand, resulting in a loss of TR-FRET signal between the Tb-anti-GST antibody and the tracer. The assay was performed as follows with all reagent additions carried out using the Beckman Coulter BioRAPTR FRD microfluidic workstation: • 1. Acoustic dispense 120 nL of the test compound into a black low volume 384 well assay plates. • 2. Prepare 1×ER alpha-LBD/Tb-antiGST Ab in ES2 screening buffer and incubate for 15 minutes. • 3. Dispense 6 μL of the 1×[…]/Tb-anti-GST Ab reagent into each well of the assay plate followed by 6 μL of Fluorophore reagent into each well of the assay plate • 4. Cover the assay plate to protect the reagents from light and evaporation, and incubate at room temperature for 4 hours. • 5.
TR-FRET dose response data obtained with each compound was exported into a suitable software package (such as Origin or Genedata) to perform curve fitting analysis. Competitive ER alpha binding was expressed as an IC50 value.

Data set [2] can be described thus: Thermodynamic solubility (shake-flask). The following applies: aqueous phosphate buffer, 25 °C, pH 7.4, aqueous buffer, thermodynamic from solid, aqueous phosphate buffer pH 7.4, 24 hours. In kind it is physicochemical. The protocol: The thermodynamic solubility of a research compound is measured under standard conditions. It is a shake-flask approach that uses 10 mM DMSO solutions which are supplied from the Compound Managements liquid store and is a high throughput method. The dried compounds are equilibrated in an aqueous phosphate buffer (pH 7.4) for 24 hours at 25° C., the portion with the dissolved compound is then separated from the remains. The solutions are analyzed and quantified using UPLC/MS/MS, QC-samples are incorporated in each assay-run to ensure the quality of the assay.

The nature of data set [3]: Human plasma protein binding (equilibrium dialysis). The following applies: dialysis 18 hours. In kind it is in vitro ADME. The protocol: The automated equilibrium dialysis assay in human plasma uses the RED (Rapid Equilibrium Dialysis) Device and sample handling. The assay generally runs over two to three days including delivery of results. After dialysis for 18 hours, plasma and buffer samples are prepared for analysis by liquid chromatography and mass spectrometry. Samples are generally tested in singlicates and quantified by LC/MSMS by using a 7-point calibration curve in plasma. The compounds are pooled together in plasma pools up to 10 compounds. Three reference compounds are used in each run, Propranolol, Metoprolol and Warfarin. Warfarin is used as a control in each pool and Propranolol and Metoprolol are placed randomly in each run. An in-house Excel macro is used for preparation of files for the robot and the mass spectrometer and is also used for the calculations of fraction unbound (fu %) in plasma.
(In general: Equilibrium dialysis compares concentrations on both sides of a semipermeable membrane.)

Data set [4] deals with Estrogen Receptor (ERα) in MCF-7 cells (Homo sapiens (Human), UniProt P03372). In words: MCF-7 ER down-regulation assay (immuno-fluorescence). Type of data set: cell-based. The protocol:
The Echo uses acoustic technology to perform direct microplate-to-microplate transfers of DMSO compound solutions to assay plates. […] Cells were fixed at room temperature for 20 mins before being washed two times with 250 μL PBS/Proclin (PBS with a Biocide preservative) using a BioTek platewasher, 40 μL of PBS/Proclin was then added to all wells and the plates stored at 4° C. The fixing method described above was carried out on the Integrated Echo 2 workcell. Immunostaining was performed using an automated AutoElisa workcell. […] The plates were incubated overnight at 4° C. […] The mean total intensity was normalized for cell number giving the total intensity per cell. The data was exported into a suitable software package (such as Origin) to perform curve fitting analysis.

Another data set concerns the target hERG potassium channel (Homo sapiens (Human), UniProt Q12809). Nature of the data set: hERG binding assay (automated patch clamp, CHO cells). Type of data set: cell-based. The following applies: CHO cell line, Nanion Syncropatch 384PE. The protocol: Reagent preparations include: • 1.
Cell preparations: • 1. If using cell culture; cells to be incubated at 30° C. for approximately 4-6 days prior to being used. Day of assay lift cells using accutase and re-suspend in 20 ml cell buffer to a density of 0.8 to 1e6 cells/ml. • 2. If using assay ready cryovials; rapidly thaw two cryovials at 37° C. and slowly pipette into 23 ml external solution • 3.
All compounds were acoustically dispensed in quadruplicate using a Labcyte Echo. […] Fill 384 well medium resistance 4 hole chips with 40 μl external buffer and perfuse internal buffer to the underside of plate. • 2. Dispense 20 μl of cells into each well of the chip followed by 20 μl of seal enhancer. • 3. Remove 40 μl of reagent from each well to the wash station, leaving a residual volume of 40 μl • 4. Dispense 40 μl of reference buffer with a removal step of 40 μl after 3 min, repeat this step. • 5.
hERG-mediated currents were elicited using a voltage step protocol consisting of acontinuous holding voltage of −80 mV, with a 500 ms step to 60 mV followed by a 500 ms step to −40 mV every 15 seconds. hERG current magnitude was measured automatically from the leak-subtracted traces by the Nanion software by taking the peak of the hERG “tail” current at −40 mV every 15 seconds and taking the last three of these responses for each concentration to generate the concentration-effect curve.
Calculation of results is performed using APC package within Genedata. For the routine normalization of well data with Neutral and Inhibitor control well groups as reference, GeneData Assay Analyzer uses the following equation to normalize the signal values to the desired signal range:
[formula] • x is the measured raw signal value of a well • is the median of the measured signal values for the Central Reference (Neutral) wells on a plate • is the median of the measured signal values for the Scale Reference (Inhibitor) wells on a plate • CR is the desired median normalized value for the Central Reference (Neutral) • SR is the desired median normalized value for the Scale Reference (Inhibitor)
In general terms: Block of hERG is tested as a sign of cardiac risk.

Data set [5] can be described thus: log D (shake flask, 1-octanol/aqueous buffer). In kind it is physicochemical. An excerpt: The lipophilicity of a drug is an important physical property which may influence many biological and metabolic properties of a compound, for example the absorption, distribution, metabolism, excretion and toxicity profiles of a compound. The distribution coefficient between 1-octanol and aqueous buffer, Log DO/W, at pH 7.4, is the most commonly used measurement of the lipophilicity of a compound. The current method for measurement of Log DO/W is based on the traditional shake flask technique, but with the modification of measuring compounds in mixtures of ten at a time using UPLC with quantitative mass spectrometry (MS) as a method to measure the relative octanol and aqueous concentrations. […] An additional QC sample Caffeine, with low Log D, are used and randomly placed in all runs. The method has been thoroughly validated against the previous shake flask methodologies.

[6] abbreviates: 1-octanol/aqueous buffer, pH 7.4, pH 7.4, 1-octanol/aqueous buffer.
Where [7] appears, read: pH 7.4, 1-octanol/aqueous buffer.

recombinant human Estrogen Receptor alpha ligand binding domain (ER alpha-LBD (GST)), sequence (P03372 307-554): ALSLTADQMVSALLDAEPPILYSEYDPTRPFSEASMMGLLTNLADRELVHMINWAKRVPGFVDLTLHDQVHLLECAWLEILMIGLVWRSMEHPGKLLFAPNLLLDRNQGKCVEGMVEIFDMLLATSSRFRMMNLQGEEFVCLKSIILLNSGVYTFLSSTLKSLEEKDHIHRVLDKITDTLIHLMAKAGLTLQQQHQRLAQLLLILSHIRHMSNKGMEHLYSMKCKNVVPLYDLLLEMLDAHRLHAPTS
Estrogen Receptor (ERα) in MCF-7 cells, sequence (P03372 whole entry): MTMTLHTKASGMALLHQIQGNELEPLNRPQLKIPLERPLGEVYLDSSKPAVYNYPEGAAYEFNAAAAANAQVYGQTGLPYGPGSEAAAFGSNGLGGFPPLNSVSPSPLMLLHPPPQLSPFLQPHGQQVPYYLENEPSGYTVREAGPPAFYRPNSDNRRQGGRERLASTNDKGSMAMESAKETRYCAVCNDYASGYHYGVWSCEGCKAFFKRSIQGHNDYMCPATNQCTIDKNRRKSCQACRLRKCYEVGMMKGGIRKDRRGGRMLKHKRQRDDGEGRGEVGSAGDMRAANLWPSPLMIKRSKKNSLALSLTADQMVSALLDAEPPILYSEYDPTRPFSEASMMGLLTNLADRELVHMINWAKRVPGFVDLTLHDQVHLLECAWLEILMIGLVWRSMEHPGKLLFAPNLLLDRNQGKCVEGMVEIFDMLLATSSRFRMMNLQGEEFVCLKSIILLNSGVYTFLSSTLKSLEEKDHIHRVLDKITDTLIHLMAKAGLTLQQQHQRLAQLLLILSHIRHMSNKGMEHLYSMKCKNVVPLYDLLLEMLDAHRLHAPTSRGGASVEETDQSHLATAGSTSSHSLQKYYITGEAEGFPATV
hERG potassium channel, sequence (Q12809 whole entry): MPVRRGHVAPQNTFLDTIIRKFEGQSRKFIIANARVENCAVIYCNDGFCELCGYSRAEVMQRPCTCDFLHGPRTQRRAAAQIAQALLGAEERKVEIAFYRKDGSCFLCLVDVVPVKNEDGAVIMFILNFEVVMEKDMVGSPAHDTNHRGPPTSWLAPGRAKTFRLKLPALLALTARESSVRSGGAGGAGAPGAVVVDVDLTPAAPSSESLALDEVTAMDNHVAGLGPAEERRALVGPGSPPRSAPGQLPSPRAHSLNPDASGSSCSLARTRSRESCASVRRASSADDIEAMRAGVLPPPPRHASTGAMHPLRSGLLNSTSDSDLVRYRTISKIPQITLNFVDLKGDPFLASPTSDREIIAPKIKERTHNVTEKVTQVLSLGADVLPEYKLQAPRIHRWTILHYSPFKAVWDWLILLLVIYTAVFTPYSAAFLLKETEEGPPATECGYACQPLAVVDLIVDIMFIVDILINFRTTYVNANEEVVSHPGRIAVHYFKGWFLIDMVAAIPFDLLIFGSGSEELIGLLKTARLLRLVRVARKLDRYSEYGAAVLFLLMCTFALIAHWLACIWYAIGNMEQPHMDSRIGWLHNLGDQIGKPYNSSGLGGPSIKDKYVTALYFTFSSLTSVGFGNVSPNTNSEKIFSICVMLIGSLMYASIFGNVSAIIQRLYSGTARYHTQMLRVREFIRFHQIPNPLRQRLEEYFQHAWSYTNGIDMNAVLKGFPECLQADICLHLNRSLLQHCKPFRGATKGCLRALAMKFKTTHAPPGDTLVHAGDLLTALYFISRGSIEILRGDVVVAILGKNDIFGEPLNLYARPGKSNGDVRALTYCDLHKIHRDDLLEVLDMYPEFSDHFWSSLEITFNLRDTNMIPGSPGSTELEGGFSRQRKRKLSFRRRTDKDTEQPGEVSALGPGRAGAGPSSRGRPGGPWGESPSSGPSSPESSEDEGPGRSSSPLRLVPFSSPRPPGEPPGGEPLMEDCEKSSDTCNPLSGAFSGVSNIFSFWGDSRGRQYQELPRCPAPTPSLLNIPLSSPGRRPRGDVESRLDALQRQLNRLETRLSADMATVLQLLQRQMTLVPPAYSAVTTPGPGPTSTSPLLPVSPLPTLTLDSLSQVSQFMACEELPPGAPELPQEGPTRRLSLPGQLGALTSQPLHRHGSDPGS

For orientation: IC50 means the concentration needed to halve the response being measured. As a reminder, the solubility is the concentration that dissolves in the medium under given conditions. A low value points to little dissolved substance. One may read the logD as lipophilicity at a set pH, counting ionised and neutral species. The low end stands for lower lipophilicity, the high end for higher lipophilicity. `C[C@@H]1Cc2c(ccc3[nH]nc(F)c23)[C@@H](c2cnc(NC3CN(CCCF)C3)cn2)N1CC(F)(F)F` [Example 38, 5-((6S,8R)-1-fluoro-8-methyl-7-(2,2,2-trifluoroethyl)-6,7,8,9-tetrahydro-3H-pyrazolo[4,3-f]isoquinolin-6-yl)-N-(1-(3-fluoropropyl)azetidin-3-yl)pyrazin-2-amine]: the concentration for half-maximal inhibition (IC50) in data set [1] is 0.69 nM; in data set [4], 0.19 nM; at hERG potassium channel, 18000 nM. The same molecule had a solubility at 24 h in data set [2] of 794 µM (≈ 393 µg/mL). The “Human plasma protein binding (% free)” value in data set [3] is reported as 13 % free. In addition, in data set [5] (setting [6]), the logD stood at 3.1.

`C[C@@H]1Cc2c(ccc3[nH]nc(F)c23)[C@@H](c2ccc(NC3CN(CCCF)C3)c(F)n2)N1CC(F)(F)F` [Example 39, 2-fluoro-6-((6S,8R)-1-fluoro-8-methyl-7-(2,2,2-trifluoroethyl)-6,7,8,9-tetrahydro-3H-pyrazolo[4,3-f]isoquinolin-6-yl)-N-(1-(3-fluoropropyl)azetidin-3-yl)pyridin-3-amine]: the IC50 in data set [1] worked out at 0.94 nM; in data set [4], 0.048 nM; on hERG potassium channel, 14000 nM. Further, the solubility at 24 h in data set [2] worked out at 257 µM (≈ 132 µg/mL). Besides, the “Human plasma protein binding (% free)” value in data set [3] amounted to 6.8 % free. In data set [5] (setting [7]), the logD worked out at 3.7.

`C[C@@H]1Cc2c(ccc3[nH]ncc23)[C@@H](c2ccc(NC3CN(CCCF)C3)c(F)c2)N1CC(F)(F)F` [Example 41, N-(2-fluoro-4-((6R,8R)-8-methyl-7-(2,2,2-trifluoroethyl)-6,7,8,9-tetrahydro-3H-pyrazolo[4,3-f]isoquinolin-6-yl)phenyl)-1-(3-fluoropropyl)azetidin-3-amine]: the half-inhibitory concentration (IC50) in data set [1] turned out to be 2.4 nM; in data set [4] it was 0.17 nM; on hERG potassium channel, 6500 nM. The same molecule showed a solubility at 24 h in data set [2] of 120 µM (≈ 59.2 µg/mL). Also, the “Human plasma protein binding (% free)” value in data set [3] stood at 2.2 % free. In addition, the log distribution coefficient (logD) in data set [5] (setting [6]) worked out at 4.1.

`COc1cc(NC2CN(CCCF)C2)ccc1[C@]1(C)c2ccc3[nH]ncc3c2C[C@@H](C)N1CC(F)F` [Example 45, N-(4-((6S,8R)-7-(2,2-difluoroethyl)-6,8-dimethyl-6,7,8,9-tetrahydro-3H-pyrazolo[4,3-f]isoquinolin-6-yl)-3-methoxyphenyl)-1-(3-fluoropropyl)azetidin-3-amine]: the IC50 in data set [1] turned out to be 1.6 nM; in data set [4], 0.3 nM; at hERG potassium channel, 4200 nM. In addition, the solubility at 24 h in data set [2] amounted to 172 µM (≈ 86.3 µg/mL). Also, in data set [3], the “Human plasma protein binding (% free)” value was found to be 6.2 % free. The molecule further yielded a log distribution coefficient (logD) in data set [5] (setting [6]) of 3.9.

Consider `COc1cc(N(C)C2CN(CCCF)C2)ccc1[C@@H]1c2ccc3[nH]ncc3c2C[C@@H](C)N1CC1(F)CC1` [Example 52, N-(4-((6S,8R)-7-((1-fluorocyclopropyl)methyl)-8-methyl-6,7,8,9-tetrahydro-3H-pyrazolo[4,3-f]isoquinolin-6-yl)-3-methoxyphenyl)-1-(3-fluoropropyl)-N-methylazetidin-3-amine], for which the figures for the half-maximal inhibitory concentration (IC50) (in data set [1]; in data set [4]; on hERG potassium channel) were 11 nM, 0.21 nM and 2000 nM, respectively. The solubility at 24 h in data set [2] came to 864 µM (≈ 440 µg/mL). Moreover, in data set [3], the “Human plasma protein binding (% free)” value turned out to be 19 % free. Also, in data set [5] (setting [6]), the logD was found to be 3.

Regarding `C[C@@H]1Cc2c(ccc3[nH]ncc23)[C@@H](c2ccc(OC3CN(CCCF)C3)cn2)N1CC(F)(F)CO` [Example 58, 2,2-difluoro-3-((6S,8R)-6-(5-((1-(3-fluoropropyl)azetidin-3-yl)oxy)pyridin-2-yl)-8-methyl-3,6,8,9-tetrahydro-7H-pyrazolo[4,3-f]isoquinolin-7-yl)propan-1-ol], the values for the IC50 (in data set [1]; in data set [4]; at hERG potassium channel) were 2.1 nM, 0.56 nM and above 40000 nM, respectively. Also, the solubility at 24 h in data set [2] is 633 µM (≈ 310 µg/mL). In data set [5] (setting [6]), this molecule came in with a pH-dependent lipophilicity (logD) of 2.4.

With `C[C@@H]1Cc2c(ccc3[nH]nc(F)c23)[C@@H](c2ccc(NC3CN(CCCF)C3)cn2)N1CC(F)(F)CO` [Example 61, 2,2-difluoro-3-((6S,8R)-1-fluoro-6-(5-((1-(3-fluoropropyl)azetidin-3-yl)amino)pyridin-2-yl)-8-methyl-3,6,8,9-tetrahydro-7H-pyrazolo[4,3-f]isoquinolin-7-yl)propan-1-ol], the results for the IC50 (in data set [1]; in data set [4]; on hERG potassium channel) were 0.88 nM, 0.13 nM and above 40000 nM, respectively. Moreover, the solubility at 24 h in data set [2] stood at 848 µM (≈ 430 µg/mL). The “Human plasma protein binding (% free)” value in data set [3] came out at 29 % free. In addition, the logD in data set [5] (setting [6]) turned out to be 2.7.

As to `C[C@@H]1Cc2c(ccc3[nH]nc(F)c23)[C@@H](c2ccc(NC3CN(CCCF)C3)c(F)n2)N1CC(F)(F)CO` [Example 62, 2,2-difluoro-3-((6S,8R)-1-fluoro-6-(6-fluoro-5-((1-(3-fluoropropyl)azetidin-3-yl)amino)pyridin-2-yl)-8-methyl-3,6,8,9-tetrahydro-7H-pyrazolo[4,3-f]isoquinolin-7-yl)propan-1-ol], the values for the IC50 (in data set [1]; in data set [4]; on hERG potassium channel) were 1 nM, 0.13 nM and above 40000 nM, respectively. Moreover, the solubility at 24 h in data set [2] was 784 µM (≈ 411 µg/mL). For the same molecule, the “Human plasma protein binding (% free)” value in data set [3] is 19 % free. In addition, the logD in data set [5] (setting [6]) is 2.8.

Turning to `CC1(C)Cc2c(ccc3[nH]ncc23)[C@@H](c2ccc(NC3CN(CCCF)C3)cn2)N1CC(F)F` [Example 73, (S)-6-(7-(2,2-difluoroethyl)-8,8-dimethyl-6,7,8,9-tetrahydro-3H-pyrazolo[4,3-f]isoquinolin-6-yl)-N-(1-(3-fluoropropyl)azetidin-3-yl)pyridin-3-amine], the half-inhibitory concentration (IC50) in data set [1] came to 3.4 nM; in data set [4] it was 0.77 nM; at hERG potassium channel it was 12000 nM. In data set [2], the solubility at 24 h stood at 925 µM (≈ 437 µg/mL). Besides, in data set [3], the “Human plasma protein binding (% free)” value worked out at 22 % free. For the same molecule, in data set [5] (setting [7]), the logD stood at 3.

These data come from patent US10131663B2, “Chemical compounds” (AstraZeneca AB, priority 2016, dated 2018).
